We go through 91 compounds from the Bradley open melting point set (2014).

“And” between values parts separate entries of the source, which are not always exact repeats. Identical values can stand only once.

What is called melting point is the temperature, or range, at which the solid turns liquid. As for `CCCCNC(=O)C(c1cc(OC)cc(OC)c1)N(Cc1ccccc1)C(=O)C#Cc1ccccc1` (stereo unspecified) [Ugi product 173G (UC)], the melting point was determined as 138 °C. Compound `Cc1ccc(C(=O)O)cc1` [p-toluic acid] yielded a melting point of 180 °C.

For `SCc1ccccc1` [benzyl mercaptan], the melting point is -29 °C and -29.2 °C. With `O=C(O)c1cc(Br)ccc1O` [5-bromosalicylic acid], the melting point was found to be 168 °C. For `Clc1ccc(I)cc1` [1-chloro-4-iodobenzene], the melting point was found to be 55 °C. The compound `Cc1ccc(Cl)c(O)c1` [2-chloro-5-methylphenol] had a melting point of 47 °C. The value for `CS(C)(=O)=O` [dimethyl sulfone] was 110 °C; that for `C` [methane] was -183 °C; that for `ClC(Cl)(Cl)C(Cl)(Cl)Cl` [Hexachloroethane] was 192 °C.

Compound `OCc1ccccc1O[C@@H]1O[C@H](CO)[C@@H](O)[C@H](O)[C@H]1O` [D-salicin] displayed a melting point of 199 °C. `Cc1ccc(-c2ccc(C)cc2)cc1` [4,4'-dimethylbiphenyl] yielded a melting point of 121 °C. For the compound `C[SiH](C)O[Si](C)(C)O[SiH](C)C` [1,1,3,3,5,5-hexamethyltrisiloxane], the melting point is -67 °C. `CCc1ccccc1` [Ethylbenzene] returned a melting point of -94.9 °C.

As to `Cc1ccccc1O` [o-Cresol], the melting point worked out at 33 °C. Consider `OCCCCCCCCCCc1ccccc1` [10-phenyl-1-decanol], for which the melting point is 36 °C. In turn, `N#CCC(=O)c1ccccc1Cl` [2-chlorobenzoylacetonitrile] came in with a melting point of 56 °C. For the compound `N=C(NCCCCCCNC(=N)NC(=N)Nc1ccc(Cl)cc1)NC(=N)Nc1ccc(Cl)cc1` [Chlorhexidine], the melting point amounted to 134 °C.

Turning to `OB(O)c1ccc(OCc2ccccc2)nc1` [6-benzyloxypyridine-3-boronic acid], the melting point turned out to be 109 °C. In the case of `C[C@]12C/C(=C/O)C(=O)C[C@@H]1CC[C@@H]1[C@@H]2CC[C@@]2(C)[C@H]1CC[C@]2(C)O` it was 179 °C; in that of `C(=C/C#N)C#N` [fumaronitrile], 97 °C; in that of `COc1ccc2c(=O)cc(-c3ccccc3)oc2c1` [7-methoxyflavone], 110 °C. For `Nc1ccc2[nH]c(C(F)(F)F)nc2c1` [5-amino-2-(trifluoromethyl)benzimidazole], the melting point is 188 °C. For the compound `C/C=C\CC` [cis-2-pentene], the melting point was -151 °C. The compound `CCCOC(=O)C1=C(C)NC(C)=C(C(=O)OCCC)C1c1cccc(OC)c1O` came in with a melting point of 167 °C. Turning to `c1ccc(-c2ccnc3c2ccc2c(-c4ccccc4)ccnc23)cc1` [bathophenanthroline], the melting point came out at 220 °C. `COc1nccnc1NS(=O)(=O)c1ccc(N)cc1` [Sulfametopyrazine]: the melting point was 170 °C. `CCCCCCCCC(=O)O[C@H]1CC[C@@]2(C)C(=CC[C@H]3[C@@H]4CC[C@H]([C@H](C)CCCC(C)C)[C@@]4(C)CC[C@@H]32)C1` [cholesteryl nonanoate]: the melting point was found to be 77 °C.

Take `O=C1CCC(N2C(=O)c3ccccc3C2=O)C(=O)N1` (stereo unspecified) [thalidomide]: the melting point is 270 °C and 275 °C. On to `CCCCCOCCCCC` [1-(Pentyloxy)pentane], for which the melting point is -69 °C.

`c1ccc(Cc2ccccc2)cc1` [diphenylmethane] yielded a melting point of 24 °C. Turning to `N#CCc1ccc(Br)cc1` [p-bromophenylacetonitrile], the melting point amounted to 48 °C. With `CCCCCCCCCC=O` [decanal], the melting point is -5 °C. In the case of `Cc1ccc(CCc2ccc(C)cc2)cc1` [4,4'-Dimethylbibenzyl] it was 78 °C.

`O=C(CCCN1CCC(O)(c2ccc(Cl)cc2)CC1)c1ccc(F)cc1` [haloperidol] had a melting point of 152 °C. The value for `CC12CCC3C(CCC4CCCCC43C)C1CC(=O)C2` (stereo unspecified) [androstan-16-one] was 108 °C. In the case of `N#Cc1cncnc1N` [4-aminopyrimidine-5-carbonitrile] it was 255 °C; in that of `COC(=O)c1ccccc1O` [methyl_salicylate], -7 °C; in that of `Cl\C1=C(/Cl)C2(Cl)C3C4CC(C3C1(Cl)C2(Cl)Cl)C5OC45` (stereo unspecified) [endrin], 210 °C. `Oc1cccc(O)c1O` [1,2,3-trihydroxybenzene] came in with a melting point of 134 °C. In turn, `CC(=O)OCC(=O)c1ccccc1` [2-acetoxy_acetophenone] displayed a melting point of 89 °C. In the case of `CC1(C)CC(=O)c2c(cc3c(c2[Si](C)(C)C)-c2ccccc2OC3)C1` it was 143 °C; in that of `Oc1ccc(-c2nccs2)cc1` [4-(2-thiazolyl)phenol], 164 °C. Consider `CCCCCCCCC` [N-nonane], for which the melting point was -53 °C. As for `Fc1c(F)c(F)c(P(c2ccccc2)c2c(F)c(F)c(F)c(F)c2F)c(F)c1F` [bis(pentafluorophenyl)phenylphosphine], the melting point amounted to 62 °C. The value for `COC(=O)c1ccc(C)cc1` [methyl p-toluate] was 34 °C; that for `c1ccc2c(c1)Cc1ccccc1-2` [Fluorene] was 116 °C. Compound `O=C(O)c1cccnc1` [Nicotinic acid] came in with a melting point of 237 °C.

In the case of `CC(=O)CC(C)(C)O` [4-Hydroxy-4-methylpentan-2-one], the melting point was -50 °C. In the case of `CC(=O)C(C)=O` [Biacetyl], the melting point is -3 °C. Regarding `O=P1(N(CCCl)CCCl)NCCCO1` (stereo unspecified) [N,N-Bis(2-chloroethyl)-1,3,2-oxazaphosphinan-2-amine 2-oxide], the melting point was determined as 43 °C. `COC(=O)c1sccc1N` [methyl 3-aminothiophene-2-carboxylate]: the melting point turned out to be 65 °C. `NC(=S)c1ccccc1` [thiobenzamide] had a melting point of 116 °C. In the case of `OCC(c1ccccc1)c1ccccc1` [2,2-Diphenylethanol] it was 54.5 °C.

In turn, `COc1ccccc1-c1ccc(/C=C/C(=O)c2ccccc2)o1` returned a melting point of 99 °C. In the case of `N#Cc1ccc[n+]([O-])c1` [3-cyanopyridine 1-oxide] it was 177 °C; in that of `SCCS` [1,2-ethanedithiol], -41 °C. In turn, `NCc1ccccc1` [benzylamine] registered a melting point of 10 °C.

On to `O=CO` [formic acid], for which the melting point was 8.3 °C and 8.32 °C. On to `C1=CCCCC1` [cyclohexene], for which the melting point was -104 °C. In the case of `C#CCN1C(=O)c2ccccc2C1=O` [N-propargylphthalimide] it was 150 °C; in that of `Oc1c(Br)c(Br)c(O)c(Br)c1Br` [tetrabromohydroquinone], 244 °C. The compound `CC(C)CCCC(C)C1CCC2C3CC=C4CC(O)CCC4(C)C3CCC12C` (stereo unspecified) [cholest-5-en-3-ol] yielded a melting point of 148 °C.

As to `O=C(O)c1cccc(O)c1` [3-hydroxybenzoic_acid], the melting point stood at 203 °C. `Cc1ccc(S(=O)(=O)N=S(C)(C)=O)cc1` [S,S-dimethyl-N-(p-toluenesulfonyl)sulfoximine] gave a melting point of 168 °C. On to `Cn1cc([N+](=O)[O-])c(O)nc1=O` [1-Methyl-5-nitropyrimidine-2,4(1H,3H)-dione], for which the melting point was found to be 269 °C. On to `CCCCCCCCCCCO` [Undecan-1-ol], for which the melting point worked out at 11 °C. Turning to `O=C(O)CCCC[C@@H]1SC[C@@H]2NC(=O)N[C@@H]21` [Biotin], the melting point is 232 °C.

Regarding `Fc1cccc2ccccc12` [1-fluoronaphthalene], the melting point is -10 °C. Compound `c1ccc2scnc2c1` [1,3-Benzothiazole] returned a melting point of 2 °C. For `CCCCCCCCCCCCCCCCCCCC` [N-eicosane], the melting point is 37 °C. The value for `O=C(OC)\C1=C(\N/C(=C(/C(=O)OC)C1c2ccccc2[N+]([O-])=O)C)C` [nifedipine] was 173 °C.

`NC(=S)Nc1cccc2ccccc12` [N-(1-naphthyl)thiourea]: the melting point was found to be 188 °C.

`COc1cc(O)c2c(=O)c(OC3OC(CO)C(O)C(O)C3OC3OC(C)C(O)C(O)C3O)c(-c3ccc(O)c(O)c3)oc2c1` (stereo unspecified) yielded a melting point of 187 °C. Compound `N#CCc1ccccc1[N+](=O)[O-]` [(2-Nitrophenyl)acetonitrile] gave a melting point of 84 °C. `CC(=O)c1ccccc1C(N)=O` [o-acetylbenzamide] displayed a melting point of 122 °C.

In turn, `CCCCC#N` [valeronitrile] displayed a melting point of -96 °C. The compound `O=Cc1ccc(O)cc1O` [2,4-dihydroxybenzaldehyde] displayed a melting point of 136 °C. With `CC(C)(C)c1cc(O)c(C(C)(C)C)cc1O` [2,5-Di-tert-butylbenzene-1,4-diol], the melting point is 218 °C. The compound `COC(=O)C1C(=O)C=C(O)CC1C` (stereo unspecified) [methyl 4-hydroxy-6-methyl-2-oxo-3-cyclohexene-1-carboxylate] gave a melting point of 123 °C. Consider `Cc1ccc(Sc2ccccc2NS(=O)(=O)c2ccc(C)cc2)cc1`, for which the melting point came to 83.8 °C. In turn, `CC(=O)S[C@@H]1CC2=CC(=O)CC[C@]2(C)[C@H]2CC[C@@]3(C)[C@@H](CC[C@@]34CCC(=O)O4)[C@H]12` [Spironolactone] displayed a melting point of 134 °C.

On to `CCOP(O)OCC` [diethyl phosphite], for which the melting point was -70 °C.

Consider `c1ccc(C/C(=N\Nc2ccccc2)c2ccc3ccccc3c2)cc1`, for which the melting point came to 166 °C.

For the compound `Br` [Hydrogen bromide], the melting point is -87 °C and -86 °C.

Regarding `CCCCCCCCCCCCCCCCCC(=O)O` [stearic acid], the melting point was 71 °C. With `CC[C@H](C)[C@H](N)C(=O)O` [L-Isoleucine], the melting point is 169 °C.

Regarding `CC(=O)OC1CCC2(C)C(CCC3C2CCC2(C)C3CCC2(C)CCc2ccccc2)C1` (stereo unspecified) [17-methyl-21-phenylpregnan-3-yl acetate], the melting point worked out at 135 °C. `CC(CN1CCOCC1)C(C(=O)N1CCCC1)(c1ccccc1)c1ccccc1` (stereo unspecified) [dextromoramide] gave a melting point of 180 °C. Regarding `Oc1ccc(Cl)c(O)c1` [4-Chlorobenzene-1,3-diol], the melting point is 107 °C. In the case of `Cc1ccccc1N1CCNCC1` [1-(o-tolyl)piperazine] it was 47 °C. With `CC(=O)CCc1oc2ccc(NC(C)=O)cc2c1-c1ccc(C)o1`, the melting point was 132 °C.
